Structures can show the parent of a compound that is named as a salt.
Key:
[1] = Metabolic stability in liver microsomes; format: in vitro ADME; conditions: pH 7.4; human liver microsomes 0.5 mg protein/mL; 45 mg microsome protein/g liver, 20 g liver/kg; read-out: Intrinsic Clearance CLint(liver) in Human Liver
Experimental: Test 3: Metabolic Stability in Liver Microsomes
3.1 Experimental Purpose: To test the metabolic stability of the compounds of the present disclosure in human liver microsomes
a. All samples as well as testosterone, diclofenac and propafenone acting as reference substances were dissolved in DMSO to a storage concentration of 10 mM.
b. Intermediate Solution: 5 μL of the substance to be tested or the reference substance was diluted with 45 μL of DMSO (with 450 μL of 1:1 methanol/water).
c. Working Solution: the intermediate solution was diluted with 450 μL of 100 mM potassium phosphate buffer solution (pH 7.4).
Assay Buffer: 100 mM potassium phosphate buffer (pH 7.4) • 10 mM MgCl2
Liver Microsome Solution (final concentration: 0.5 mg protein/mL):
Human liver microsomes, obtained from BD, Cat No. 452117, Lot No. 38291
b. 10 μL of the working solution containing the substance to be tested or the reference substance was added to each of plates (T0, T5, T10, T20, T30, T60, NCF60).
c. The liver microsome solution was dispensed into a 96-well plate in an amount of 680 μL/well, then 80 was added, and then T was added to each of the plates. The above incubation plate was placed at 37° C. and pre-incubated for approximately 10 minutes.
d. 10 μL of 100 mM potassium phosphate buffer was added to each well in the NCF60 plate.
e. After the pre-incubation was finished, the NADPH regeneration system working solution was dispensed into the 96-well plate in an amount of 90 μL/well, and then added to each of the plates in an amount of 10 μL/well to start the reaction.
f. The plates were incubated for an appropriate time (e.g., 5, 10, 20, 30, or 60 minutes).
g. The stop solution (refrigerated at 4° C., containing 100 ng/mL Tolbutamide and 100 ng/mL Labetalol) was added to each sample well in an amount of 300 μL/well.
h. The sample plates were shaken well for about 10 minutes and centrifuged at 4,000 rpm for 20 minutes at 4° C. During the centrifugation, 300 μL of HPLC water was added to each well, and 100 μL of the supernatant was taken for LC-MS/MS analysis.
T1/2 and Clint(mic) were calculated by the following formula: […]
Each gram of liver contained 45 mg of microsome protein, and the liver weight was 20 g/kg in a human.
Ct was the concentration at time t, t was the incubation time, C0 was the concentration at time 0, Ke was an elimination rate constant, Clint(mic) was the intrinsic clearance in liver microsomes, and Clint(liver) was the intrinsic clearance in liver. CLint(mic)=0.693/half-life/mg of microsome protein per mL(concentration of microsomes during incubation) CLint(liver)=CLint(mic)×mg of microsome protein/g of liver weight×a ratio of liver weight to body weight 3.4 Test Results

[2] = biological target: T1, human μ-subtype opioid receptor (hMOR) (Homo sapiens (Human), UniProt P35372); assay: MOR β-arrestin-2 agonist activity test; format: cell-based; conditions: for Emax: maximum effect of enkephalin DAMGO was 100%, about 0% = no actual agonist activity
Experimental: Test 2: β-Arrestin-2 Agonist Activity Test
2.1 Experimental Purpose: To test the β-arrestin-2 agonist activity of the compounds of the present disclosure on the human μ-subtype opioid receptor (hMOR).
a. All samples were dissolved in DMSO to a storage concentration of 10 mM.
(§1) b. A series of diluted samples were formulated on a 384-well LDV plate. A total of 11 concentration points were obtained by 3.162-fold gradient dilution.
c. The series of diluted samples were transferred to an experimental plate by using an Echo machine, wherein 60 nL of the compound was transferred corresponding to each well.
d. 60 nL of 3.33 mM DAMGO (as HPE) and 60 nL of DMSO (as ZPE) were transferred to the corresponding positions on the experimental plate by using the Echo machine.
The experiment was performed using PathHunter Detection Kit from DiscoveRX Cooperation (DiscoveRX #93-0213C3)
a. Assay buffer and PathHunter detection reagent required for the experiment were formulated.
Assay Buffer: 1×DPBS buffer
PathHunter Detection Reagent: The kit was provided therein with three constituents.
c. The experimental plate was centrifuged at 300 rpm for 30 s and incubated at room temperature for 2 hours.
d. 6 μL of the PathHunter detection reagent was added to each well of the experimental plate.
e. The experimental plate was centrifuged at 300 rpm for 30 seconds, then left at room temperature for 60 minutes, and then read on the Envision.

[3] = biological target: T1, human μ-subtype opioid receptor (hMOR); assay: MOR cAMP agonist activity test; format: cell-based; conditions: for Emax: maximum effect of enkephalin DAMGO was 100%
Experimental: Test 1: MOR cAMP Agonist Activity Test
1.1 Experimental Purpose: To test the cAMP agonist activity of the compounds of the present disclosure on the human μ-subtype opioid receptor (hMOR).
a. Compound samples were dissolved in DMSO to a storage concentration of 10 mM.
as §1
c. The series of diluted samples were transferred to an experimental plate (Corning-3824) by using an Echo machine, wherein 30 nL was transferred corresponding to each well.
The experiment was performed using a cAMP detection kit from Cisbio (Cisbio #62AM4PEJ).
a. Assay buffer and stimulation buffer (STB) required for the experiment were formulated.
Stimulation Buffer: formulated with the assay buffer, containing 5 μM NKH477 (CAS: 138605-00-2) and 200 μM IBMX (3-isobutyl-1-methylxanthine)
b. […] The number of cells in the well was 10,000 cells/well.
c. The experimental plate was placed in a 37° C. constant-temperature incubator for incubation. The incubation was performed for 40 minutes.
d. A cAMP standard concentration curve was prepared. The first concentration point was at 2848 nM, and a total of sixteen detection concentrations were obtained by 4-fold gradient dilution. There were three replicates for each concentration point.
e. The cAMP detection kit from Cisbio was provided therein with a d2-labeled cAMP reagent (d2 reagent) and an Eu-labeled cAMP antibody reagent (Crypate reagent). The above two reagents were formulated according to the kit instructions, and then added to the sample experimental plate and to the cAMP standard concentration experimental plate, respectively. It was necessary to add 5 μL of the d2 reagent and then 5 μL of the Cryptate reagent to each well.
f. After the experimental plates were left at room temperature for 60 minutes, the experimental plates were read on the Envision.

[4] = Pharmacokinetics of the compounds in rats; format: in vivo, rat
Experimental: 6.1 Experimental Purpose: To measure, using a LC/MS/MS method, the medicament concentrations of the compound in plasma and specific tissues at different time points after the compound was administered by a single intravenous injection (IV) to 7-9-week-old male SD rats used as test animals, to study on the pharmacokinetic behavior of the compound of the present disclosure in rats, and to evaluate the pharmacokinetic characteristics thereof. 6.2 Compound Formulation
Each of them was formulated at a concentration of 1 mg/mL and was used for IV (intravenous injection) administration.
The actual weights of the rats were weighed on the day of administration and volumes to be administered were calculated. The above formulated solutions to be administered were administered by injection into caudal veins of rats.
About 0.2 mL of whole blood samples were collected by means of jugular vein puncture at the time set in the experimental protocol, and the actual blood collection time was recorded in the experimental records. All the blood samples were added to labeled plastic centrifuge tubes to which K2-EDTA anticoagulant was added in advance. After the blood samples were collected, they were centrifuged at 3,000 g for 10 minutes at 4° C. to prepare the supernatant plasma, and the plasma was stored at −20° C. or a lower temperature for LC-MS/MS analysis.
The concentrations of the compounds in rat plasma were measured by using high-performance liquid chromatography-tandem mass spectrometry (LC-MS/MS). The retention durations of the compounds and internal standard, chromatogram acquisition, and integration of chromatograms were processed using the software Analyst (Applied Biosystems), and data statistics were processed using the software Watson LIMS (Thermo Fisher Scientific) or Analyst (Applied Biosystems). The plasma concentration was processed using a non-compartmental model of WinNonlin™ Version 6.3 (Pharsight, Mountain View, Calif.) which was a pharmacokinetic software, and the pharmacokinetic parameters were calculated using a linear logarithmic trapezoidal method.

[5] = >30000 nM = greater than the highest detection concentration, read-out: MOR β-arrestin-2 EC50

COc1ccsc1CNCC[C@@]1(c2ccc(F)cc2)CCO[C@]2(CCOC2)C1 [(+)-3]
CLint scaled [1]: 39 mL/min/kg | EC50 [2, 5]: > 30000 nM | Emax [2]: ~0% | EC50 [3]: 3 nM | Emax [3]: 82%

Fc1ccc([C@]2(CCNCc3scc4c3CCC4)CCO[C@]3(CCOC3)C2)nc1 [(+)-5]
EC50 [2, 5]: > 30000 nM | Emax [2]: ~0% | Emax [3]: 96.5% | Apparent Clearance Cl ([4]; male SD rats, single IV, mg/Kg: Comparative Compound 1 1.80, (+)-5 2.40, (+)-16 1.76, HCl salt of (+)-23 1.71): 58.9 mL/min/kg | Vd ([4]; male, SD, rat, plasma, iv, read-out: Apparent Distribution Volume Vd): 3.6 L/kg | AUC(0-inf) ([4]; male, SD, rat, plasma, iv, read-out: Area under the Curve AUC0-inf): 1.4 µM·h | half-life ([4]; male, SD, rat, plasma, iv, read-out: Hal-life T1/2 (converted)): 54 min | C0 ([4]; male, SD, rat, plasma, iv, read-out: Initial Concentration C0): 1810 nM | Brain/Plasm Ratio B/P ratio ([4]; rats, IV, sampling point […], mg/Kg: Comparative Compound 1 0.56, (+)-5 2.40, (+)-16 1.76, HCl salt of (+)-23 1.71): 2.19

Fc1ccnc([C@]2(CCNCc3scc4c3CCC4)CCO[C@]3(CCOC3)C2)c1 [(+)-6]
CLint scaled [1]: 86 mL/min/kg | EC50 [2, 5]: > 30000 nM | Emax [2]: ~0% | EC50 [3]: 1.8 nM | Emax [3]: 86.5%

c1ccc([C@]2(CCNCc3scc4c3COC4)CCO[C@]3(CCOC3)C2)nc1 [(+)-7]
EC50 [2, 5]: > 30000 nM | Emax [2]: ~0% | EC50 [3]: 14.1 nM | Emax [3]: 90.4%

Cc1cc(C)cc(CNCC[C@@]2(c3ccccn3)CCO[C@]3(CCOC3)C2)c1 [(+)-10]
EC50 [2, 5]: > 30000 nM | Emax [2]: ~0% | EC50 [3]: 11.6 nM | Emax [3]: 96.6%

c1ccc([C@]2(CCNCc3cccc4c3CCCC4)CCO[C@]3(CCOC3)C2)nc1 [(+)-11]
CLint scaled [1]: 72.5 mL/min/kg | EC50 [2, 5]: > 30000 nM | Emax [2]: ~0% | EC50 [3]: 1.4 nM | Emax [3]: 87.2%

Cc1ccsc1CNCC[C@@]1(c2ccc(F)cc2)CCO[C@]2(CCOC2)C1 [(+)-13]
EC50 [2, 5]: > 30000 nM | Emax [2]: ~0% | EC50 [3]: 4.1 nM | Emax [3]: 61.2%

Fc1ccc([C@]2(CCNCc3cccs3)CCO[C@]3(CCOC3)C2)cc1 [(+)-14]
Emax [2]: ~0%

Fc1ccc([C@]2(CCNCc3ccc(Cl)cc3)CCO[C@]3(CCOC3)C2)nc1 [(+)-17]
EC50 [2, 5]: > 30000 nM | Emax [2]: ~0% | EC50 [3]: 8.9 nM | Emax [3]: 78.5%

c1ccc([C@]2(CCNCc3cccc4c3CCC4)CCO[C@]3(CCOC3)C2)nc1 [(+)-19]
EC50 [2, 5]: > 30000 nM | Emax [2]: ~0% | EC50 [3]: 4.5 nM | Emax [3]: 69.9%

Clc1ccc(CNCC[C@@]2(c3ccccn3)CCO[C@]3(CCOC3)C2)cc1Cl [(+)-20]
EC50 [2, 5]: > 30000 nM | Emax [2]: ~0% | EC50 [3]: 3.1 nM | Emax [3]: 99.6%

Clc1cc(Cl)cc(CNCC[C@@]2(c3ccccn3)CCO[C@]3(CCOC3)C2)c1 [(+)-21]
EC50 [2, 5]: > 30000 nM | Emax [2]: ~0% | EC50 [3]: 2.2 nM | Emax [3]: 92.3%

c1ccc([C@]2(CCN[C@H]3CCc4ccccc43)CCO[C@]3(CCOC3)C2)nc1 [(+)-25]
EC50 [2, 5]: > 30000 nM | Emax [2]: ~0% | Emax [3]: 90%

Fc1ccc([C@]2(CCN[C@H]3CCCc4ccccc43)CCO[C@]3(CCOC3)C2)nc1 [(+)-26]
EC50 [2, 5]: > 30000 nM | Emax [2]: ~0% | EC50 [3]: 0.2 nM | Emax [3]: 96%

c1ccc([C@]2(CCN[C@H]3CCCc4ccccc43)CCO[C@]3(CCOC3)C2)nc1 [(+)-27]
EC50 [2, 5]: > 30000 nM | Emax [2]: ~0% | EC50 [3]: 0.8 nM | Emax [3]: 91%

Fc1ccc([C@]2(CCNCc3scc4c3CCC4)CCO[C@]3(CCOC3)C2)cc1 [Formate Salt of (+)-4]
EC50 [2, 5]: > 30000 nM | Emax [2]: ~0% | EC50 [3]: 0.07 nM

Fc1ccc([C@]2(CCNCc3scc4c3COC4)CCO[C@]3(CCOC3)C2)cc1 [Hydrochloride Salt of (+)-12]
EC50 [2, 5]: > 30000 nM | Emax [2]: ~0% | EC50 [3]: 6.8 nM

Fc1ccc([C@]2(CCNCc3cc(Cl)cc(Cl)c3)CCO[C@]3(CCOC3)C2)nc1 [Hydrochloride Salt of (+)-24]
EC50 [2, 5]: > 30000 nM | Emax [2]: ~0% | EC50 [3]: 0.2 nM | Emax [3]: 95%

c1ccc([C@]2(CCNCc3cc4c(s3)CCC4)CCOC3(CCCC3)C2)nc1 [compound 2, reference compound]
EC50 [2]: 500 nM | Emax [2]: 35.2% | Emax [3]: 105%
